Data: ChEMBL document CHEMBL1201862, “PubChem BioAssay data set” (2004)
The source made the active and inactive calls.

Key:
[1] = target: Kappa-type opioid receptor (Homo sapiens, UniProt P41145); experiment: OPRK1 antagonists, late-stage follow-up, cell-based, fluorescence, dose response (AID 652032); format: functional
H9c2 = experiment: cells; format: functional, cell-based; conditions: Rattus norvegicus, H9c2, Myocardium
[2] = Counterscreen for […] of the human trace amine associated receptor 1 (TAAR1): Fluorescence-based cell-based high throughput dose response assay to identify nonselective Ga16 agonists.; format: functional
[3] = target: T1, Trace amine-associated receptor 1 (Homo sapiens, UniProt Q96RJ0); experiment: Fluorescence-based cell-based high throughput dose response assay to identify antagonists of the human trace amine associated receptor 1 (TAAR1).; format: functional
T1 sequence (Q96RJ0 whole entry): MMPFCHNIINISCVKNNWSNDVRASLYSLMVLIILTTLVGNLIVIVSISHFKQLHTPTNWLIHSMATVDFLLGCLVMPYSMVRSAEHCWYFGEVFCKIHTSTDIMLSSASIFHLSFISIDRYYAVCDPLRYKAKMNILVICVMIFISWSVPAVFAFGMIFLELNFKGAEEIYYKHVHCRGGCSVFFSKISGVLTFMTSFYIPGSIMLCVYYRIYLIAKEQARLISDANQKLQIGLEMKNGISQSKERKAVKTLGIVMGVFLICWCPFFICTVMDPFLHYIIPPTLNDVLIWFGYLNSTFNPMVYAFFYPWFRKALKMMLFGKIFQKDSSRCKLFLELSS

[4] = Counterscreen for antagonists of the human trace amine associated receptor 1 (hTAAR1): Fluorescence-based cell-based high throughput dose response assay to identify nonselective Ga16 antagonists.; format: functional
[5] = tested on: Streptococcus sp. 'group A'; experiment: growth inhibition of control SK(-) GAS strain, dose response, counter-screen for streptokinase expression inhibitor project, luminescence, kanamycin, BacTiterGlo, confirmation (AID 1900); format: functional, organism-based
[6] = target: T1, Trace amine-associated receptor 1; experiment: Counterscreen for antagonists of the human trace amine associated receptor 1 (hTAAR1): Fluorescence-based cell-based high throughput dose response assay to identify TAAR1 Agonists.; format: functional
Streptokinase A = target: T2, Streptokinase A (Streptococcus pyogenes serotype M1, UniProt P10520); experiment: S. pyogenes streptokinase expression inhibitors, potency, dose response, plasminogen activation absorbance, OD405 (AID 1914); format: functional, Streptococcus pyogenes M1 GAS;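 further: secreted streptokinase activity via plasminogen activation per viability signal from cell pellet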
T2 sequence (P10520 whole entry): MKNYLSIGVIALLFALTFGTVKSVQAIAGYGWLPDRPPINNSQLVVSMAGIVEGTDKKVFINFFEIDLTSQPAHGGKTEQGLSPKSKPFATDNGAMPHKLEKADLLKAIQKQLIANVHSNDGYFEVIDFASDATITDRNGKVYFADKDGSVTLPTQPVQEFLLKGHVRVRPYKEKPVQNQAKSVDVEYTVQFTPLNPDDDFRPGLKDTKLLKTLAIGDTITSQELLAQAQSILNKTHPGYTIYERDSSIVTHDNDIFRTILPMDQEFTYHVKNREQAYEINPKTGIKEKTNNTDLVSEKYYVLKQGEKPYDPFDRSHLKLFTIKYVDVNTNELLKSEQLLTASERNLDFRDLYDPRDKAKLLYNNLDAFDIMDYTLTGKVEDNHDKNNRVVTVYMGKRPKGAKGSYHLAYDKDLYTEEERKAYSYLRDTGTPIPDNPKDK

Streptococcus = experiment: Group A Streptococcus viability loss, dose response, counter-screen for streptokinase expression inhibitor project, luminescence, BacTiterGlo (AID 1915); format: functional, organism-based;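 further: potency for reduction of bacterial viability or growth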
[7] = Late stage assay provider results from the probe development effort to identify selective inhibitors of heat shock protein 90 (HSP90): Absorbance-based cell proliferation assay in MCF7 cells.; format: functional
[8] = Late stage assay provider results from the probe development effort to identify selective inhibitors of heat shock protein 90 (HSP90): Absorbance-based cell proliferation assay in SKBR3 cells.; format: functional; conditions: SK-BR-3
[9] = HepG2 cell cytotoxicity, dose response, cytotoxicity control, luminescence plate reader, powder samples, set 2 (AID 651860); format: functional, cell-based
[10] = HEK293 cell viability, dose response, counter-screen for EBV LMP1 inhibitor project, dry powder, set 2 (AID 624374); format: functional
[11] = HEK293 Cytotoxicity Assay Measured in Cell-Based System Using Plate Reader - 7071-01_Inhibitor_Dose_CherryPick_Activity_Set2.; format: functional
HEK293 = experiment: HEK293T cell cytotoxicity, dose response, cytotoxicity control, ATP luminescence, cherry-pick samples (AID 687005); format: functional, cell-based; conditions: Homo sapiens;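 further: cells exposed to compound for 48 hours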
[12] = target: T3, Scavenger receptor class B member 1 (Mus musculus, UniProt Q61009); experiment: inhibitors of SR-BI-mediated HDL uptake, dose response, cell-based, ldlA[mSR-BI] CHO, DiI fluorescence, dry powder, set 10 (AID 624029); format: functional
T3 sequence (Q61009 whole entry): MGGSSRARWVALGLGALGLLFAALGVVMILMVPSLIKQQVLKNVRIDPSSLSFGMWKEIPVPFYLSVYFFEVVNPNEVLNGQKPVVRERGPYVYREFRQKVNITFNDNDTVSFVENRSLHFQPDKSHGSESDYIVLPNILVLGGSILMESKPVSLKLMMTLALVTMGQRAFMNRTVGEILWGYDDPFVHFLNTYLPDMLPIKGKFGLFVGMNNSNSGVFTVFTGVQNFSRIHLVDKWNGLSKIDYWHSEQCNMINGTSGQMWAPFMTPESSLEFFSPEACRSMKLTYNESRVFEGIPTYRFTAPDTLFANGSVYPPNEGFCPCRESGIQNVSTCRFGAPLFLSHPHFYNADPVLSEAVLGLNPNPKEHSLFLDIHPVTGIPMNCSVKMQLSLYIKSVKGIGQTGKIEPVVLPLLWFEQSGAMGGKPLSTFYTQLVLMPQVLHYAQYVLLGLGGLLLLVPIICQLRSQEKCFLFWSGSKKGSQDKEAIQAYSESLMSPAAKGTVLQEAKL

[13] = target: T3, Scavenger receptor class B member 1; experiment: inhibitors of SR-BI dependent HDL uptake, dose response, ldlA[mSR-BI] CHO cells, fluorescence plate reader, dry powder, set 9 (AID 623880); format: functional, cell-based
[14] = Luminescence-based cell-based high throughput dose response assay to identify activators of the DAF-12 from the parasite S. stercoralis (ssDAF-12).; format: functional
[15] = microbe, parasite or virus in culture; format: functional; conditions: Mycobacterium tuberculosis
[16] = reduction of Shn3 3'UTR firefly luciferase signal, dose response, Schnurri-3 inhibitor project, cell-based, Clone20 osteoblasts, cherry-pick, set 2 (AID 720490); format: functional;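 further: actives lower the luminescence signal as inhibitors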
[17] = Shn3 3'UTR reporter inhibitors, dose response, cell-based, Clone20 osteoblasts, firefly luciferase, cherry-picked (AID 624132); format: functional;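 further: firefly luciferase luminescence from reporter carrying the Shn3 3'UTR in osteoblasts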
[18] = TRPM1 promoter luciferase reporter signal decrease, dose response, MITF inhibitor project, cell-based, SK-MEL-5, dry powder, set 8 (AID 624430); format: functional
[19] = MITF Orthogonal Assay: SK-MEL-5 CTG Assay Measured in Cell-Based System Using Plate Reader - 2084-02_Inhibitor_Dose_DryPowder_Activity_Set7.; format: functional
[20] = MITF: Counter assay: A375 proliferation Measured in Cell-Based System Using Plate Reader - 2084-03_Inhibitor_Dose_DryPowder_Activity_Set8.; format: functional; conditions: A-375

Sequence of Kappa-type opioid receptor (P41145 whole entry): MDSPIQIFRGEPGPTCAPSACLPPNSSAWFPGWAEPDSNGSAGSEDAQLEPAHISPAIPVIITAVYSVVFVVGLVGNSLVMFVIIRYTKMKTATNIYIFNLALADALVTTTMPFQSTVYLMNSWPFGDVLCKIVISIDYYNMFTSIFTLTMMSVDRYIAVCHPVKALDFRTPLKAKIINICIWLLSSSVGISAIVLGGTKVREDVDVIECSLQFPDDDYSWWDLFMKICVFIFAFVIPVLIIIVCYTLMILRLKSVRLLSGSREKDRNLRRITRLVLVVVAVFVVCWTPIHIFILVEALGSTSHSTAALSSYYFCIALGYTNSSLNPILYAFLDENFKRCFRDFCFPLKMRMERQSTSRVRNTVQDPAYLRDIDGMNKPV

## COC(=O)c1cc(Br)cnc1N1CCC(Nc2ccccc2)CC1
[1]
  IC50: 17.5 µM (inactive)

## COc1cccc(-c2nn(-c3ccccc3)cc2C(=O)Nc2nccs2)c1
H9c2
  IC50: 7.3 µM (active)
[2]
  EC50: > 29.9 µM (inactive)
[3]
  IC50: 4.72 µM (active)
[4]
  IC50: > 29.9 µM (inactive)
[5]
  EC50: 14.9 µM (active)
[6]
  EC50: > 29.9 µM (inactive)
Streptokinase A
  EC50: 35.9 µM (active)
Streptococcus
  EC50: > 150 µM (not active)

## CC(=O)c1ccc(NC(=O)c2coc(=O)c(Br)c2)cc1
[7]
  IC50: 10.7 µM (inactive)
[8]
  IC50: 8.4 µM (active)

## O=C(O)[C@H]1CCCC[C@H]1C(=O)N1CCc2ccccc2C1CCN1C(=O)c2ccccc2C1=O (some centres undefined)
[9]
  AC50: > 52 µM (inactive)

## COc1ccccc1C(=O)Nc1ccc2c(c1)C(=O)N(C)[C@@H]1CC[C@H](CC(=O)NCCc3ccncc3)O[C@H]1CO2
[10]
  AbsAC35: 153.61 µM

## COc1ccc(S(=O)(=O)N[C@@H]2C=C[C@@H](CC(=O)N3CCC(Cc4ccccc4)CC3)O[C@H]2CO)cc1
[11]
  AC50: 19.9 µM (active)
HEK293
  AC50: 19.9 µM (active)

## CC(C)CN(C(=O)COC(=O)C12CC3CC(CC(O)(C3)C1)C2)C1CCS(=O)(=O)C1 (centres undefined)
[12]
  AC50: 0.252 µM (active)
[13]
  AC50: 0.209 µM (active)

## COc1ccc(S(=O)(=O)Cc2ccc(C(=O)NCCCN3CCc4ccccc4C3)o2)cc1
[14]
  IC50: > 67.5 µM (inactive)

## O=C(c1nnc(O)c2ccccc12)N1CCN(C2c3ccccc3-c3ccccc32)CC1
[15]
  CC50: > 40 µM (active)
[16]
  AC50: 10.7 µM (active)
[17]
  AC50: 7.69 µM (active)

## CN(C1=CC(=O)c2ccccc2C1=O)c1ccccc1
[18]
  AC50: 16.2 µM (active)
[19]
  AC50: 2.32 µM (active)
[20]
  AC50: > 70 µM (inactive)
